According to patent US20230348467A1, “Heteroaryl Derivative, Preparation Method Therefor, And Use Thereof” (Zhejiang Hisun Pharmaceutical Co., Ltd., priority 2020, published 2023):

What was measured:
[1] = target: recombinant human full-length SHP2 (Homo sapiens (Human), UniProt Q06124); experiment: Allosteric inhibition of full-length SHP2 enzyme (DiFMUP fluorescence); type: biochemical; details: full-length SHP2 0.5 nM, activating peptide 0.5 uM, DiFMUP substrate
Text: The following method was used to determine the inhibition degrees of the compounds of the present invention on the activity of recombinant human full-length SHP2 in vitro. SHP2 was allosterically activated by the binding of di-tyrosyl-phosphorylated peptide to a Src homologous 2(SH2) domain of SHP2. An activation step of the latter leads to the self-inhibitory interface release of SHP2, and then activates SHP2 protein tyrosine phosphatase (PTP), which might be used for substrate recognition and reaction catalysis.
The experimental process was briefly described as follows: Test compounds were first dissolved in DMSO to prepare storage solutions. […] Then, the compounds to be tested were added in a concentration range of 0.00004-10 uM and incubated at 25° C. for 60 minutes. Then DiFMUP (Thermo, D6567) was added in the reaction and incubated at 25° C. for 30 minutes. After incubation, readings were taken using a microplate reader (BMG) with excitation and emission wavelengths of 340 nm and 450 nm, respectively.

[2] = system: NCI-H23 cells (containing KRAS G12C mutation); experiment: Inhibition of NCI-H23 cell proliferation (CellTiter-Glo); type: cell-based; details: Homo sapiens, 120 hours culture
Procedure: (§1) The following method was used to determine the effects of the compounds of the present invention on NCI-H23 cell proliferation. NCI-H23 cells (containing KRAS G12C mutation) were purchased from Cell Resource Center of Shanghai Institutes for Biological Sciences, Chinese Academy of Sciences, and cultured in RPMI 1640 mediums containing 10% fetal bovine serum, 100 U penicillin, 100 μg/mL streptomycin and 1 mM Sodium Pyruvate. The activities of the cells were determined by CellTiter-Glo® Luminescent Cell Viability Assay kit (Promega, article number: G7573).
(§2) The experimental method was operated according to the steps in the kit instruction, and was briefly described as follows: test compounds were first dissolved in DMSO to prepare storage solutions of 10 mM, and then diluted in mediums, prepared as test samples. The final concentrations of the test compounds were 10,000 nM to 1.52 nM. The cells in logarithmic phase were inoculated in a 96-well cell culture plate with 1,000 cells per well, after cultured overnight in 5% CO2 incubator at 37° C., the test compounds were added to the incubator to continue the culture for 120 hours. After the culture, 50 μL of CellTiter-Glo detection solution was added to each well, shaken for 5 minutes, and then stood for 10 minutes. Then, a Luminescence mode was used to read the luminescence values of each well of the samples on a microplate reader. Compared with the numerical value of a control group (0.3% DMSO), the percentage inhibition rates of the compounds at each concentration were calculated, and the IC50 values of the compounds inhibiting cell proliferation were obtained by performing nonlinear regression analysis with logarithmic values of the compound concentration—inhibition rate by GraphPad Prism 5 software, which was shown in Table 2.

[3] = system: NCI-H358 cells (containing KRAS G12C mutation); experiment: Inhibition of NCI-H358 cell proliferation (CellTiter-Glo); type: cell-based; details: Homo sapiens, NCI-H358, 120 h, read-out: IC50(nM)/NCI-H358
Procedure: as §1, with “NCI-H358” for “NCI-H23”
as §2, with “of the” for “of a”, “Table 3.” for “Table 2.”

[4] = Pharmacokinetic test in ICR mice, intragastric (Test Example 4); type: in vivo; details: PO; for AUC(0-inf) / Cmax: mouse, 10 mg/kg per table (method text says 1 mg/kg), plasma; for AUC(0-inf): read-out: Area under curve AUC0-∞; for Cmax: read-out: Blood concentration Cmax
Text: ICR mice were used as test animals, and LC/MS/MS methods was used to determine the drug concentrations at different moments in plasma of mice administered by intragastric injection with the compound 5 and the compound 6 of the present invention, and to study the pharmacokinetic characteristics of the compounds of the present invention in mice. An appropriate amount of drug was weighed, added with an appropriate amount of sodium carboxymethylcellulose (CMC-Na, containing 0.5% Tween 80), vortexed, and ultrasonically prepared into 1 mg/kg suspension. The ICR mice in the intragastric group of each compound to be tested (9 mice in each group) were fasted overnight and then administered by intragastric injection (PO, […], and administration volume of 10 mL/kg), and ate 4 hours after administration. About 0.2 mL of blood was collected via jugular vein before administration and 0.083 hour, 0.25 hour, 0.5 hour, 1 hour, 2 hours, 4 hours, 8 hours and 24 hours after administration, and heparin sodium was used for anticoagulation. The collected blood samples were placed on ice, and plasma was separated by centrifugation (centrifugation condition: 1,500 g, 10 minutes). The collected plasma samples were stored at −40° C. to −20° C. before analysis. LC-MS/MS was used to determine the contents of the compounds to be tested in mouse plasma after intragastric administration.

[5] = Pharmacokinetic test of mice, intragastric (Test Example 5); type: in vivo; details: ICR mice, PO, 5 mg/kg
Text: ICR mice were used as test animals, and LC/MS/MS methods was used to determine the drug concentrations at different moments in plasma of mice administered by intragastric injectiion with the compound 27 of the present invention, and to study the pharmacokinetic characteristics of the compound of the present invention in mice. An appropriate amount of drug compound 27 was weighed, added with an appropriate amount of sodium carboxymethylcellulose (CMC-Na, containing 0.5% Tween 80), vortexed, and ultrasonically prepared into 0.5 mg/kg suspension. The ICR mice in the intragastric group of each compound to be tested (9 mice in each group) were fasted overnight and then administered by intragastric injection (PO, administration dose of the compound 27 was 5 mg/kg, and administration volume of the compound 27 was 10 mL/kg), and ate 4 hours after administration. About 0.2 mL of blood was collected via jugular vein before administration and 0.083 hour, 0.25 hour, 0.5 hour, 1 hour, 2 hours, 4 hours, 8 hours, 12 hours and 24 hours after administration, and heparin sodium was used for anticoagulation. The collected blood samples were placed on ice, and plasma was separated by centrifugation (centrifugation condition: 1,500 g, 10 minutes). The collected plasma samples were stored at −40° C. to −20° C. before analysis. LC-MS/MS was used to determine the content of the compound to be tested in mouse plasma after intragastric administration.

[6] = system: NCI-H358 subcutaneous transplanted tumors; experiment: Growth inhibition of subcutaneous transplanted NCI-H358 tumors in BALB/c nude mice; type: in vivo
Procedure: To evaluate antitumor effects and safety of the compounds of Example 27 in an animal model of BALB/c nude mice with subcutaneous transplanted NCI-H358 cell lines
An approximate amount of the compound of Example 27 was weighed, added with an approximate amount of DMA (dimethylacetamide) to fully dissolve the compound, then added with Solutol HS 15 and Saline (DMA: Solutol HS 15: Saline=5:10:85 (v/v/v)) in turn, and mixed evenly by vortex, and the configuration concentration was 3 mg/mL.
BALB/c nude mice, female, 6-7 weeks old (the age of mice when tumor cells were inoculated), 12 mice, purchased from Jiangsu GemPharmatech.
NCI-H358 cells were cultured in RPMI 1640 mediums containing 10% fetal bovine serum, 1% sodium pyruvate and 1% glutamine. NCI-H358 cells in exponential growth period were collected, and resuspend in PBS to a suitable concentration for subcutaneous tumor inoculation in nude mice.
12 female BALB/c nude mice were subcutaneously inoculated with about 3×10^6 NCI-H358 cells on the right sides of their backs. When the average volume of tumors reaches about 100 mm^3 to 200 mm^3, the mice were randomly divided according to tumor sizes with 6 mice in each group. The animals in each group were given the subjects once a day (qd) according to the animal body weights at a fixed time every day according to the table below, administered orally (po) for 10 consecutive days, and the daily body weights were recorded.
After tumor inoculation, routine monitoring included the effects of tumor growth and treatment on the normal behaviors of the animals, specifically the mobility, feeding and drinking, weight gain or loss, eyes, coat and other abnormalities of the experimental animals.
(1) TV (tumor volume)=½×a×b^2, wherein a and b represent the length and the width of the tumor respectively;
(2) RTV (relative tumor volume)=Vt/V0, wherein V0 is the tumor volume measured at the time of grouping administration (i.e., d0), and Vt is the tumor volume at each measurement;
(3) Relative tumor proliferation rate T/C (%)=TRTV/CRTV×100%, wherein TRTV is the RTV of the treatment group and CRTV is the RTV of the control group;

[7] = Day 10, 30 mg/kg po qd for 10 days

recombinant human full-length SHP2, sequence (Q06124 whole entry): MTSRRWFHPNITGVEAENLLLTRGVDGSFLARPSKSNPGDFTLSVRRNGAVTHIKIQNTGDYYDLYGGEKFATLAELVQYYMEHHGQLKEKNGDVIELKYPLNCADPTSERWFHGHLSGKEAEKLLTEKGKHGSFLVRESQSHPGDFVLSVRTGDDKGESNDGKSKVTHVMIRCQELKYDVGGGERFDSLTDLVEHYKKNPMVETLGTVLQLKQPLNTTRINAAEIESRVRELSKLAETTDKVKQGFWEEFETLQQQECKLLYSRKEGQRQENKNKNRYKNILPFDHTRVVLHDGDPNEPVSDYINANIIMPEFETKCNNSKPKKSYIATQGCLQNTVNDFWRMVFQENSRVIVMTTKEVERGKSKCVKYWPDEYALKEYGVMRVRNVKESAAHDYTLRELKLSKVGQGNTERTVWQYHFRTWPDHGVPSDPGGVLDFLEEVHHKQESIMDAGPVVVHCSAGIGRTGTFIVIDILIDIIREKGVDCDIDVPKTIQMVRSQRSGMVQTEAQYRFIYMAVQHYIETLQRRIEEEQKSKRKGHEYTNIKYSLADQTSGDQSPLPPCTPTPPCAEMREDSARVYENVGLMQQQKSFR

| SMILES | IC50 [1] [µM] | IC50 [2] [nM] | IC50 [3] [nM] | other results |
| --- | --- | --- | --- | --- |
| NC(=O)c1nc(N2CCC3(CC2)Cc2ccccc2[C@H]3N)nc2[nH]nc(-c3cccc(Cl)c3Cl)c12 [Example 5, (S)-6-(1-amino-1,3-dihydrospiro[indene-2,4′-piperidin]-1′-yl)-3-(2,3-dichlorophenyl)-1H-pyrazolo[3,4-d]pyrimidine-4-carboxamide] | 0.001 | 143 | 27 | Pharmacokinetic properties (conclusion in words) [4]: good pharmacokinetic properties; AUC(0-inf) [4]: 31300 ng·h/mL; Cmax [4]: 2110 ng/mL |
| NC(=O)c1nc(N2CCC(N)(c3ccccc3)CC2)nc2[nH]nc(-c3cccc(Cl)c3Cl)c12 [Example 6, 6-(4-amino-4-phenylpiperidin-1-yl)-3-(2,3-dichlorophenyl)-1H-pyrazolo[3,4-d]pyrimidine-4-carboxamide] | 0.004 | 61 | 19 | Pharmacokinetic properties (conclusion in words) [4]: good pharmacokinetic properties; AUC(0-inf) [4]: 18500 ng·h/mL; Cmax [4]: 1190 ng/mL |
| N[C@@H]1c2ccccc2CC12CCN(c1nc(C(=O)O)c3c(-c4cccc(Cl)c4Cl)n[nH]c3n1)CC2 [Example 9, (S)-6-(1-amino-1,3-dihydrospiro[indene-2,4′-piperidin]-1′-yl)-3-(2,3-dichlorophenyl)-1H-pyrazolo[3,4-d]pyrimidine-4-carboxylic acid] | 0.001 | 13 | – | – |
| Cc1nc(N2CCC3(CC2)CO[C@@H](C)[C@H]3N)c(CO)nc1-c1cccc(Cl)c1Cl [RMC-4550, reference compound] | – | 240 | 80 | – |
| NC1(c2cccc(Cl)c2)CCN(c2nc(C(=O)O)c3c(-c4cccc(Cl)c4Cl)n[nH]c3n2)CC1 [Example 25, 6-(4-amino-4-(3-chlorophenyl)piperidin-1-yl)-3-(2,3-dichlorophenyl)-1H-pyrazolo[3,4-d]pyrimidine-4-carboxylic acid] | 0.005 | – | – | – |
| NC(=O)c1nc(N2CCC(N)(c3ccccc3)CC2)nc2[nH]cc(-c3cccc(Cl)c3Cl)c12 [Example 53, 2-(4-amino-4-phenylpiperidin-1-yl)-5-(2,3-dichlorophenyl)-7H-pyrrolo[2,3-d]pyrimidine-4-carboxamide] | 0.011 | – | – | – |
| NC(=O)c1nc(N2CCC(N)(c3ccccc3)CC2)nc2[nH]nc(-c3ccnc(Cl)c3Cl)c12 [Example 27, 6-(4-amino-4-phenylpiperidin-1-yl)-3-(2,3-dichloropyridin-4-yl)-1H-pyrazolo[3,4-d]pyrimidine-4-carboxamide] | 0.007 | 167 | 37 | Pharmacokinetic properties (conclusion in words) [5]: good pharmacokinetic properties; AUC(0-inf) ([5]; mouse, plasma, read-out: Area under curve AUC0-∞): 2720 ng·h/mL; Cmax ([5]; mouse, plasma, read-out: Blood concentration Cmax): 285 ng/mL; Tmax ([5]; mouse, plasma, read-out: Peak time Tmax): 8 h; Growth inhibition effect on NCI-H358 tumor-bearing mice (in words) ([6]; 30 mg/kg): obvious growth inhibition effects; Body weight change ([6]; 30 mg/kg po qd for 10 days): no obvious change in body weight; Tumor volume (mm^3, mean value ± standard error) Day 0 ([6]; Day 0 (at grouping), 30 mg/kg po qd group): 138 ± 14 mm^3; TGI % Day 10 [6, 7]: 55.6%; Tumor volume (mm^3, mean value ± standard error) Day 10 [6, 7]: 155 ± 22 mm^3 |
| NC1(c2ccc(Cl)cc2)CCN(c2nc(C(=O)O)c3c(-c4cccc(Cl)c4Cl)n[nH]c3n2)CC1 [Example 24, 6-(4-amino-4-(4-chlorophenyl)piperidin-1-yl)-3-(2,3-dichlorophenyl)-1H-pyrazolo[3,4-d]pyrimidine-4-carboxylic acid] | 0.005 | – | – | – |
